Tests used:
[1] = biological target: T1, CFTR-G1349D (Homo sapiens, UniProt P13569, G1349D); assay: YFP-halide influx assay for the CFTR-G1349D; assay type: cell-based; settings: CFTR-G1349D mutant; read-out: EC50 measured by YFP-halide influx assay for the CFTR-G1349D
T1 construct: expressed in transfected cells
How it was run: (§1)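 HEK293 cells reverse-transfected with mutant CFTR and halide-sensitive YFP H148Q/I152L/F47L reporter, then expressed 24 h at 37 °C, 5% CO2. Fluorescence quenching recorded for 7 s after I^− injection; response expressed as 1−F/F0, with EC50 derived from response versus compound concentration.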

[2] = biological target: T2, CFTR G551D mutant (Homo sapiens, UniProt P13569, G551D); assay: YFP-halide influx assay for the CFTR-G551D mutation (HEK293 cells); assay type: cell-based; settings: HEK293 cells expressing CFTR G551D and YFP reporter; forskolin 10.67 μM; read-out: EC50 measured by YFP-halide influx assay for the CFTR-G551D
T2 construct: expressed in transfected cells; host or cells: HEK293 (reverse transfection with plasmids)
T2 sequence (P13569 whole entry G551D): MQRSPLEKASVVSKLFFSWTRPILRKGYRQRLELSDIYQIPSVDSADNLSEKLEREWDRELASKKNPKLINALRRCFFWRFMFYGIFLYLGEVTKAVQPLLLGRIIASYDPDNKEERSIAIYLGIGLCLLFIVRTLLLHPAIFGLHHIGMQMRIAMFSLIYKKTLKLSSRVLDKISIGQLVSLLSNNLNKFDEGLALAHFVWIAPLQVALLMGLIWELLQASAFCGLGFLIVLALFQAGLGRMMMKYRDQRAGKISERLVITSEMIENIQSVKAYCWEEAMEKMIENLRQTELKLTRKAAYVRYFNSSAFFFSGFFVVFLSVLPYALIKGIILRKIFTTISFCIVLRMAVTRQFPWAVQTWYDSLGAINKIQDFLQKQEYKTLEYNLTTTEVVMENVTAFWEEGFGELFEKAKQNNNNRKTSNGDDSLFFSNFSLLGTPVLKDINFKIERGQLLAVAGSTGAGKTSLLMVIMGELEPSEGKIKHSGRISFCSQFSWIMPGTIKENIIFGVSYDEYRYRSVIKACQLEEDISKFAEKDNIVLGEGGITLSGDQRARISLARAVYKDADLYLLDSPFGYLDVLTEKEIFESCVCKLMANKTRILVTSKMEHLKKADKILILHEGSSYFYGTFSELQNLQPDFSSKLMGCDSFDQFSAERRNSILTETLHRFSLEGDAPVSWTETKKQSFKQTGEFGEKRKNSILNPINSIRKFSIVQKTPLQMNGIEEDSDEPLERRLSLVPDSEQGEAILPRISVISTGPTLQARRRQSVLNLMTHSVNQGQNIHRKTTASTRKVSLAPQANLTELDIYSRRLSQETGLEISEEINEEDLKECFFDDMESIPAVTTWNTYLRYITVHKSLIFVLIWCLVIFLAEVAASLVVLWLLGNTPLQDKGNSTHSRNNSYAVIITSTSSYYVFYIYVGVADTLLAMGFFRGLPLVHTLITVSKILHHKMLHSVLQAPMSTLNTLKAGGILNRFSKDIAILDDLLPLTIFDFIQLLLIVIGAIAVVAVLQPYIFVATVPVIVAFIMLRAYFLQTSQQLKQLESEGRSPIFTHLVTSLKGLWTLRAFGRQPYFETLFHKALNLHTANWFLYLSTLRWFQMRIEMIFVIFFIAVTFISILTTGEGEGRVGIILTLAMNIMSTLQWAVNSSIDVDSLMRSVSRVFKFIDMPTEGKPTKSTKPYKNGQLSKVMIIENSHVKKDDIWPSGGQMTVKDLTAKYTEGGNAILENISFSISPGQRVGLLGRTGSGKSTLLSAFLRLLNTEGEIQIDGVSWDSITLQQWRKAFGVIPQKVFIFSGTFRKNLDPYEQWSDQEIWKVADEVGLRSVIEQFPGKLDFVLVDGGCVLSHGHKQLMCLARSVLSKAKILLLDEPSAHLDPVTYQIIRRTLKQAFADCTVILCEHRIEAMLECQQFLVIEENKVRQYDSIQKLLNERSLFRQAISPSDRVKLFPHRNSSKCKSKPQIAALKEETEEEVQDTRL
How it was run: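 HEK293 cells reverse-transfected with CFTR G551D and halide-sensitive YFP, expressed 24 h at 37 °C. Iodide-induced fluorescence quench recorded for 7 s after I^− injection; response as 1−F/F0, EC50 from concentration plot.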

[3] = biological target: T3, CFTR-G178R (Homo sapiens, UniProt P13569, G178R); assay: YFP-halide influx assay for the CFTR-G178R; assay type: cell-based; settings: read-out: EC50 measured by YFP-halide influx assay for the CFTR-G178R
T3 construct: expressed in transfected cells
T3 sequence (P13569 whole entry G178R): as the sequence (P13569 whole entry G551D) above, with G178R, D551G counted along it
How it was run: as §1

[4] = biological target: T4, CFTR ΔF508 mutant (Homo sapiens, UniProt P13569, DEL508-508); assay: YFP-halide influx assay for the CFTR-ΔF508 mutation (384 well, CFBE41o- cells, FDSS/μCell); assay type: cell-based; settings: forskolin 10.67 μM, fluorescence after 36 seconds, read-out: EC50 measured by YFP-halide influx assay for the CFTR-ΔF508
T4 construct: expressed in transfected cells; host or cells: CFBE41o- (adenoviral transduction)
T4 sequence (P13569 with tags, fused parts or gaps DEL508-508): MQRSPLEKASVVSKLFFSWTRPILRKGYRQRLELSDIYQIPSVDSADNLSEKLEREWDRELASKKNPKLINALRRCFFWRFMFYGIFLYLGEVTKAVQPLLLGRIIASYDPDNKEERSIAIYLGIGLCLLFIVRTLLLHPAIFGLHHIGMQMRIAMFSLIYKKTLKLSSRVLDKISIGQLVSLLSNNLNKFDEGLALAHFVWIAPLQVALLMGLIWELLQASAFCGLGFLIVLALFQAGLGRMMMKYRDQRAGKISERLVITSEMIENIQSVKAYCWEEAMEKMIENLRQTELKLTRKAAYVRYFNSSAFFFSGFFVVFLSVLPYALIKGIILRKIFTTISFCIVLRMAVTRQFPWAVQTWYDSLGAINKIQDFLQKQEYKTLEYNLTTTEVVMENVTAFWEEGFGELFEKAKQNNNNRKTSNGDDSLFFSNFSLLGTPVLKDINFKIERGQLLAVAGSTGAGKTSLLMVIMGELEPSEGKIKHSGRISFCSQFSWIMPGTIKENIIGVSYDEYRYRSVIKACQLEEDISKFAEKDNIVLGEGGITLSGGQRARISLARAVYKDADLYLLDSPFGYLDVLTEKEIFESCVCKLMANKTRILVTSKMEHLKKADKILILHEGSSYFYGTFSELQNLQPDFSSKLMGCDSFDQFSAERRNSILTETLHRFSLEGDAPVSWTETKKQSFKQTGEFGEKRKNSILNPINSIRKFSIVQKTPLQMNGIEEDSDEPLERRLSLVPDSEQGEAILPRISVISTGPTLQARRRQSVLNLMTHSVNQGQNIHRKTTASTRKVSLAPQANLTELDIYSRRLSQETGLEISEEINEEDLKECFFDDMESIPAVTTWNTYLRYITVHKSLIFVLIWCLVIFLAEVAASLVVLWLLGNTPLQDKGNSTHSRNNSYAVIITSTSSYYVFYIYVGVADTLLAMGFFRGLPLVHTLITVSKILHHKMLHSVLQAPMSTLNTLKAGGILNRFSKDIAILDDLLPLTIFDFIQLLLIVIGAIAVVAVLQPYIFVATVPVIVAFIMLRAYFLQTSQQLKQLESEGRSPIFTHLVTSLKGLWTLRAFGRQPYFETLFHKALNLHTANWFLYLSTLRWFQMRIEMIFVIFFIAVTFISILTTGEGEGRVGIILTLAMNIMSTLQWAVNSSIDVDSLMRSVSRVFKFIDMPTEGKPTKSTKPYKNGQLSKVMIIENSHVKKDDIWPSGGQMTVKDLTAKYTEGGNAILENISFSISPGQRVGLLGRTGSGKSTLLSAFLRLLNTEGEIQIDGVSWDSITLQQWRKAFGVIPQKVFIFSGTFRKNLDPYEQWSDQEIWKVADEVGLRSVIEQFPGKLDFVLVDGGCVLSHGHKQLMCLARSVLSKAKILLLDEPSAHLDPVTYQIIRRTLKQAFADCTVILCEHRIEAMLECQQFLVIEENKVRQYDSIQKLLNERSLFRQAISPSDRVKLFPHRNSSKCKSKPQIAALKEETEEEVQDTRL
How it was run: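 CFBE41o- cells were adenovirally transduced with ΔF508 CFTR and the YFP H148Q/I152L reporter. Cells were then held 24 h at 27 °C or treated 24 h at 37 °C with a CFTR modulator. Iodide-induced quench was recorded for 2 min, and EC50 was derived from 1−F/F0 at 36 s against compound concentration.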

[5] = biological target: CFTR G551D (Homo sapiens, UniProt P13569, G551D); assay: TECC assay, FRT cells stably transfected with G551D CFTR; assay type: cell-based; settings: high expression CFTR-G551D cells, several values in a cell = repeat determinations
CFTR G551D, sequence (P13569 whole entry G551D): as the sequence (P13569 whole entry G551D) above
Method: 7.2.3. FRT-CFTR G551D Protocol
For G551D recordings, Fish Rat Thyroid (FRT) cells stably transfected with G551D CFTR (a low CFTR-G551D expressing cell line and a high expressing CFTR-G551D cell line from Rosalind Franklin University of medicine and science, Chicago, Ill.) are plated on Transwell supports (Costar 6.5 mm Diameter, […]). The cells are grown for 8-10 d under liquid-liquid interface conditions prior to electrophysiological readings. For electrophysiological recording, the FRT-G551D cells are mounted in the TECC heating plate for electrophysiological measurement and kept at 37° C. The epithelia are bathed in hepes buffered culturing medium without FBS on both the basolateral and apical sides. Apical amiloride is used to inhibit the endogenous ENaC currents while forkolin is applied on both apical and basolateral side to stimulate CFTR. After forskolin triggering, compounds are added on both sides to test their potential for increasing CFTR gating. Measurements are done during a 10 minute timeframe with recordings every 2 min. The increase in ISC is used as a measure for the increased CFTR activity, EC50 values can be generated by measuring impact of different concentrations of compound on ISC on the cells, for this purpose each transwell is treated with a different compound concentration. Inh-172, an inhibitor specific for CFTR, is used to test the specificity of the tested compounds.
When subjected to this protocol, the following EC50 are measured.

[6] = biological target: T5, CFTR-S549N (Homo sapiens, UniProt P13569, S549N); assay: YFP-halide influx assay for the CFTR-S549N; assay type: cell-based; settings: CFTR-S549N mutant; read-out: EC50 measured by YFP-halide influx assay for the CFTR-S549N
T5 construct: expressed in transfected cells
T5 sequence (P13569 whole entry S549N): as the sequence (P13569 whole entry G551D) above, with S549N, D551G counted along it
How it was run: as §1

[7] = biological target: T6, CFTR-R117H (Homo sapiens, UniProt P13569, R117H); assay: YFP-halide influx assay for the CFTR-R117H; assay type: cell-based; settings: CFTR-R117H mutant; read-out: EC50 measured by YFP-halide influx assay for the CFTR-R117H
T6 construct: expressed in transfected cells
T6 sequence (P13569 whole entry R117H): as the sequence (P13569 whole entry G551D) above, with R117H, D551G counted along it
How it was run: as §1

[8] = biological target: T4, CFTR ΔF508 mutant; assay: YFP-halide influx assay for the CFTR-ΔF508 mutation (96 well, CFBE41o- cells); assay type: cell-based; settings: compounds of the invention, 96 well, forskolin 10.67 μM, read-out: EC50 measured by YFP-halide influx assay for the CFTR-ΔF508
How it was run: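 CFBE41o- cells were adenovirally transduced with CFTR ΔF508 and the halide-sensitive YFP H148Q/I152L. They were then corrected either at 27 °C for 24 h or with a CFTR modulator for 24 h at 37 °C. After iodide injection, YFP quenching over 7 s was expressed as 1−F/F0, and EC50 was derived from the concentration–response plot.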

[9] = Lung distribution study; assay type: in vivo, Sprague-Dawley rats; settings: male, Sprague-Dawley, rat, plasma, oral, 10 mg/kg, exposure values
Method: Sprague-Dawley rats (male, 5-6 weeks old) are obtained from Janvier (France). Rats are acclimatized for at least 5 days before treatment and are kept on a 12 h light/dark cycle. Temperature is maintained at approximately 22° C., and food and water are provided ad libitum. Two days before administration of the test compounds, rats may undergo surgery to place a catheter in the jugular vein under isoflurane anesthesia. After the surgery, rats are housed individually. Rats are deprived of food for at least 16 h before oral dosing and 6 h after. Water is provided ad libitum.
8.7.3. Lung Distribution Studies
Compounds are formulated in 0.5% methylcellulose and EtOH/PEG 200/Methylcellulose 0.5% (10/25/65 v/v/v) by the oral route. Test compounds are orally dosed as a single esophageal gavage at 10 mg/kg under a dosing volume of 5 mL/kg. Each group consists of 12 rats. At each time point, typically 1, 3, 6 and 24 h, animals are euthanized and blood and lung samples are collected. Whole blood samples are centrifuged at 1500 g for 10 min and the resulting plasma samples, along with the lung samples, are stored at −20° C. pending analysis.
8.7.4. Quantification of Compound Levels in Plasma and Lung Samples
Lung samples are milled in the presence of ceramic beads and proteins present in plasma and lung samples are precipitated with an organic solvent. Concentrations of each test compound are determined by an LC-MS/MS method in which the mass spectrometer is operated in positive or negative electrospray mode.
For each animal, the lung-to-plasma ratio is determined as the ratio between compound concentration in lung and in plasma. At each sampling time point, mean, standard error of the mean (sem) and coefficient of variation (CV %) are calculated using data from three animals.

T1 sequence (P13569 whole entry G1349D): as the sequence (P13569 whole entry G551D) above, with D551G, G1349D counted along it

Compound	EC50 [1] [nM]	EC50 [2] [nM]	EC50 [3] [nM]	EC50 [4] [nM]	EC50 [5] [nM]	EC50 [6] [nM]	EC50 [7] [nM]	EC50 [8] [nM]	AUC(0-t) [9] [ng·h/mL]
CC(C)(C)CC(O)C(=O)Nc1sc2c(c1C(N)=O)CC(C)(C)OC2(C)C (single isomer, unassigned) [Compound 110, 2-[[2-hydroxy-4,4-dimethyl-pentanoyl]amino]-5,5,7,7-tetramethyl-4H-thieno[2,3-c]pyran-3-carboxamide]	142	209	22.5	0.66	193	261	49.9		
CCc1cc(C(=O)Nc2sc3c(c2C(N)=O)CC(C)(C)OC3(C)C)n[nH]1 [Compound 17, N-(3-carbamoyl-5,5,7,7-tetramethyl-5,7-dihydro-4H-thieno[2,3-c]pyran-2-yl)-5-ethyl-1H-pyrazole-3-carboxamide]		193		10.3				15.5	290
CC1(C)Cc2c(sc(NC(=O)c3[nH]ncc3Cl)c2C(N)=O)C(C)(C)O1 [Compound 25, N-(3-carbamoyl-5,5,7,7-tetramethyl-5,7-dihydro-4H-thieno[2,3-c]pyran-2-yl)-4-chloro-1H-pyrazole-3-carboxamide]		80.6		2.25	70			4.14	439
Cc1cn[nH]c1C(=O)Nc1sc2c(c1C(N)=O)CC(C)(C)OC2(C)C [Compound 35, N-(3-carbamoyl-5,5,7,7-tetramethyl-5,7-dihydro-4H-thieno[2,3-c]pyran-2-yl)-4-methyl-1H-pyrazole-3-carboxamide]	118	183	44.1	2.44	43.7	120	180	3	
CC1(C)Cc2c(sc(NC(=O)c3cnco3)c2C(N)=O)C(C)(C)O1 [Compound 136, N-(3-carbamoyl-5,5,7,7-tetramethyl-4H-thieno[2,3-c]pyran-2-yl)oxazole-5-carboxamide]	1190	2530	786	81.5	62500	2610	807		

— patent publication US9351955B2, “Compounds and pharmaceutical compositions thereof for the treatment of cystic fibrosis” (Galapagos NV, priority 2013, dated 2016)
